This is an account of results in PubChem BioAssay AID2820 (Sanford-Burnham Center for Chemical Genomics, 2010).

This assay has as its target G-protein coupled receptor 55 (Homo sapiens) (UniProt Q9Y2T6). Nature of the assay: GPR55 antagonist potency of analogs, SAR follow-up, imaging, U2OS, beta-arrestin-GFP, LPI agonist, set 2 (AID 2820). The note with it: LPI antagonism.

G-protein coupled receptor 55 (Homo sapiens), sequence (Q9Y2T6 whole entry, looked up): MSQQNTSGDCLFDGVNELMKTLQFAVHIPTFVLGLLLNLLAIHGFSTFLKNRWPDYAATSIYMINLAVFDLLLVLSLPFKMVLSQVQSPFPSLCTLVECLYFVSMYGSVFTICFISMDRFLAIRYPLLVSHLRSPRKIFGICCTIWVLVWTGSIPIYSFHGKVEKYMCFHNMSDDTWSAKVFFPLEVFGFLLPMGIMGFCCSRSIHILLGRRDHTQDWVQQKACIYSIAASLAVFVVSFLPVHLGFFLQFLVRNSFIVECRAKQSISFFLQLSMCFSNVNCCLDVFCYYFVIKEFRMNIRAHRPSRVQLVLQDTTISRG

As a reminder, the IC50 is the concentration that inhibits the measured activity by half. Regarding `Cc1nc(N2CCN(C(=O)c3ccco3)CC2)c2c3c(sc2n1)CCCC3`, the IC50 was 702 nM. As for `O=C(c1ccco1)N1CCN(c2nc(C3CC3)nc3sc4c(c23)CCCC4)CC1`, the figure is 865 nM; as for `Cc1ccc(C2(C(=O)N3CCC(n4nc(-c5ccccc5)oc4=O)CC3)CC2)cc1`, 1080 nM.

On to `Cc1cc(OCC(=O)Nc2ccc(S(=O)(=O)NC3=NCCCCC3)cc2)c(C(C)C)cc1Cl`, for which the IC50 was 1090 nM.
